Literature values as cited in patent publication US12558353B2 (CELLTAXIS, LLC, priority 2018, dated 2026).
Like-named read-outs stand apart in the source and are kept apart here.

Key:
BLT1 receptor = molecular target: T1, BLT1 receptor (Homo sapiens, UniProt Q15722); conditions: patients with stable CF lung disease, cited from earlier work
T1 construct: host or cells: human CF patients (endogenous receptor)

[1] = system: P. aeruginosa-infected mice; conditions: doses of 0.3 to 100 mg/kg; cited from earlier work
patients with CF = conditions: high doses, cited from earlier work

T1 sequence (Q15722 whole entry): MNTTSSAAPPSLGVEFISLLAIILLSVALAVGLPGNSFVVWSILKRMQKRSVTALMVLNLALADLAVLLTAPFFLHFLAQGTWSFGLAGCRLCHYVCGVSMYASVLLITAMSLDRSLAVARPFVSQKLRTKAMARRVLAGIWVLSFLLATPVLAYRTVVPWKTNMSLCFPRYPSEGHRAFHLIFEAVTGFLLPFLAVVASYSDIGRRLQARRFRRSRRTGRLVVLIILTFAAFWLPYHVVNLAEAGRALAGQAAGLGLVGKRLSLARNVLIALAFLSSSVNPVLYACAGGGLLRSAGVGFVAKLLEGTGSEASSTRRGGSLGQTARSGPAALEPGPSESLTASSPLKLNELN

SMILES | serious adverse events leading to early termination of the trial (BLT1 receptor) | serious adverse events leading to early termination of the trial (BLT1 receptor; listed as amelubant) | Mac-1 (CR3) expression [1] | number of neutrophils in the lungs and the airways [1] | survival (patients with CF; children with CF) | lung function decline (patients with CF)
CCOC(=O)NC(=N)c1ccc(OCc2cccc(COc3ccc(C(C)(C)c4ccc(O)cc4)cc3)c2)cc1 | increase in respiratory serious adverse events | increase in serious pulmonary AEs | significantly down-regulated | reduced the number of neutrophils |  | 
CC(C)Cc1ccc(C(C)C(=O)O)cc1 (stereo not drawn) [ibuprofen] |  |  |  |  | improves survival | slows lung function decline
